Calls of active or inactive are those of the source. The rule behind the calls is not given here.
Columns and labels:
[1] = Cytotoxicity against human LoVo/DX cells after 72 hrs by sulforhodamine B assay; format: functional, cell-based
LoVo [2] = test: Potency index, ratio of sulforaphane IC50 to compound IC50 for human LoVo cells; format: functional
LoVo [3] = test: Cytotoxicity against human LoVo cells after 72 hrs by sulforhodamine B assay; format: functional, cell-based
LoVo [4] = test: Potency index, ratio of benzyl isothiocyanate IC50 to compound IC50 for human LoVo cells; format: functional
[5] = Induction of apoptosis in human LoVo/DX cells assessed as loss of mitochondrial membrane potential at 15 uM after 24 hrs by JC-1 staining based flow cytometric method relative to control; format: functional
LoVo [6] = test: Induction of apoptosis in human LoVo cells assessed as necrotic cells at 15 uM after 24 hrs by APC-Annexin-V/propidium iodide staining based flow cytometric method (reference value: 10%); format: functional
LoVo [7] = test: Induction of apoptosis in human LoVo cells assessed as loss of mitochondrial membrane potential at 15 uM after 24 hrs by JC-1 staining based flow cytometric method relative to control; format: functional
LoVo [8] = test: Induction of apoptosis in human LoVo cells assessed as increase in caspase3/7 activity at 15 uM using Ac-DEVD-ACC as substrate pretreated for 24 hrs followed by substrate addition measured for 2 hrs by fluorescence assay relative to control; format: functional
[9] = Induction of apoptosis in human LoVo/DX cells assessed as increase in caspase3/7 activity at 15 uM using Ac-DEVD-ACC as substrate pretreated for 24 hrs followed by substrate addition measured for 2 hrs by fluorescence assay relative to control; format: functional
LoVo/DX = test: Induction of apoptosis in human LoVo/DX cells assessed as late apoptotic cells at 15 uM after 24 hrs by APC-Annexin-V/propidium iodide staining based flow cytometric method relative to control; format: functional
LoVo [10] = test: Induction of apoptosis in human LoVo cells assessed as late apoptotic cells at 15 uM after 24 hrs by APC-Annexin-V/propidium iodide staining based flow cytometric method relative to control; format: functional
LoVo [11] = test: Induction of apoptosis in human LoVo cells assessed as increase in early apoptotic cells at 15 uM after 24 hrs by APC-Annexin-V/propidium iodide staining based flow cytometric method relative to control; format: functional
Mus musculus [12] = test: Toxicity in BALB/c mdb mouse implanted with mouse 4T1 cells assessed as serum AST level at 100 umol/kg, ip administered five times weekly measured at 29 day post cell innoculum (reference value: 136 +/- 10.3 U/L); format: organism-based; conditions: in vivo, 696 h
Mus musculus [13] = test: Toxicity in BALB/c mdb mouse implanted with mouse 4T1 cells assessed as serum urea level at 100 umol/kg, ip administered five times weekly measured at 29 day post cell innoculum (reference value: 3.8 +/- […]); format: organism-based; conditions: in vivo, 696 h
Mus musculus [14] = test: Toxicity in BALB/c mdb mouse implanted with mouse 4T1 cells assessed as spleen weight at 100 umol/kg, ip administered five times weekly measured at 29 day post cell innoculum (reference value: 0.603 +/- 0.133 g); format: organism-based; conditions: in vivo, 696 h
Mus musculus [15] = test: Toxicity in BALB/c mdb mouse implanted with mouse 4T1 cells assessed as RBC level at 100 umol/kg, ip administered five times weekly measured at 29 day post cell innoculum (reference value: 8.6 +/- 0.9 10^6/uL); format: organism-based; conditions: in vivo, 696 h
Mus musculus [16] = test: Toxicity in BALB/c mdb mouse implanted with mouse 4T1 cells assessed as serum ALT level at 100 umol/kg, ip administered five times weekly measured at 29 day post cell innoculum (reference value: 23.8 +/- 2.2 U/L); format: organism-based; conditions: in vivo, 696 h
Mus musculus [17] = test: Toxicity in BALB/c mdb mouse implanted with mouse 4T1 cells assessed as lung weight at 100 umol/kg, ip administered five times weekly measured at 29 day post cell innoculum (reference value: 0.2 +/- 0.018 g); format: organism-based; conditions: in vivo, 696 h
4T1 [18] = test: Anti-tumor activity against mouse 4T1 cells implanted in BALB/c mdb mouse assessed as tumor growth inhibition at 100 umol/kg, ip administered five times weekly measured on day 15 post cell innoculum relative to control; format: functional; conditions: 4T1, ip, 360 h, read-out: TGI
[19] = Resistance index, ratio of IC50 for human LoVo/DX cells to IC50 for human LoVo cells; format: functional
Mus musculus [20] = test: Toxicity in BALB/c mdb mouse implanted with mouse 4T1 cells assessed as hematocrit at 100 umol/kg, ip administered five times weekly measured at 29 day post cell innoculum (reference value: 39.9 +/- 3.7 %); format: organism-based; conditions: in vivo, 696 h
Mus musculus [21] = test: Hepatotoxicity in BALB/c mdb mouse implanted with mouse 4T1 cells assessed as liver weight at 100 umol/kg, ip administered five times weekly measured at 29 day post cell innoculum (reference value: 1.2 +/- 0.13 g); format: toxicity, organism-based; conditions: in vivo, 696 h
Mus musculus [22] = test: Toxicity in BALB/c mdb mouse implanted with mouse 4T1 cells assessed as serum creatinine level at 100 umol/kg, ip administered five times weekly measured at 29 day post cell innoculum (reference value: 9.3 +/- 1.2 umol/L); format: organism-based; conditions: in vivo, 696 h
Mus musculus [23] = test: Toxicity in BALB/c mdb mouse implanted with mouse 4T1 cells assessed as serum PLT level at 100 umol/kg, ip administered five times weekly measured at 29 day post cell innoculum (reference value: 972 +/- 157 10^3/uL); format: organism-based; conditions: in vivo, 696 h
4T1 [24] = test: Anti-tumor activity against mouse 4T1 cells implanted in BALB/c mdb mouse assessed as lung metastasis at 100 umol/kg, ip administered five times weekly measured at 29 days post cell innoculum (reference value: 56 +/- 25); format: functional
Mus musculus [25] = test: Toxicity in BALB/c mdb mouse implanted with mouse 4T1 cells assessed as WBC level at 100 umol/kg, ip administered five times weekly measured at 29 day post cell innoculum (reference value: 212.3 +/- 82.8 10^3/uL); format: organism-based; conditions: in vivo, 696 h
Mus musculus [26] = test: Toxicity in BALB/c mdb mouse implanted with mouse 4T1 cells assessed as body weight loss at 100 umol/kg, ip administered five times weekly measured 3 times weekly during compound dosing; format: organism-based; conditions: in vivo
Mus musculus [27] = test: Toxicity in BALB/c mdb mouse implanted with mouse 4T1 cells assessed as hemoglobin level at 100 umol/kg, ip administered five times weekly measured at 29 day post cell innoculum (reference value: 15.1 +/- 1.5 g/dl); format: organism-based; conditions: in vivo, 696 h
Mus musculus [28] = test: Nephrotoxicity in BALB/c mdb mouse implanted with mouse 4T1 cells assessed as kidney weight at 100 umol/kg, ip administered five times weekly measured at 29 day post cell innoculum (reference value: 0.136 +/- 0.006 g); format: toxicity, organism-based; conditions: in vivo, 696 h
4T1 [29] = test: Anti-tumor activity against mouse 4T1 cells implanted in BALB/c mdb mouse assessed as tumor growth inhibition at 100 umol/kg, ip administered five times weekly measured on day 29 post cell innoculum relative to control; format: functional; conditions: 4T1, ip, 696 h, read-out: TGI

SMILES	IC50 [1] [µM]	IC50 (LoVo [3]) [µM]	further results
CC(C)OP(=O)(CCCCCN=C=S)OC(C)C	7.9	2.6	Ratio IC50 (LoVo [2]): 10; Ratio IC50 (LoVo [4]): 5
CC(C)[C@@H]1CC[C@@H](C)C[C@H]1OP(=O)(CCCCN=C=S)O[C@@H]1C[C@H](C)CC[C@H]1C(C)C	5.8	5.1	–
C=CCN=C=S [ALLYL ISOTHIOCYANATE]	29.3	21.2	–
C[S+]([O-])CCCCN=C=S (configuration not stated) [SULFORAPHANE]	18.1	22.9	Activity [5]: 35%; Activity (LoVo [6]): Active; Activity (LoVo [7]): 35%; fold change (FC) (LoVo [8]): 1.41; fold change (FC) [9]: 2.52; Activity (LoVo/DX): Active; Activity (LoVo [10]): Active; Activity (LoVo [11]): inactive
COP(=O)(CCCN=C=S)OC	9.6	9.3	–
C=CCOP(=O)(CCCCN=C=S)OCC=C	3.7	5.2	–
CC(C)(C)COP(=O)(CCCN=C=S)OCC(C)(C)C	14	10.2	–
O=P(CCCCN=C=S)(Oc1ccccc1)Oc1ccccc1	3.1	2.3	Ratio IC50 (LoVo [2]): 10; Ratio IC50 (LoVo [4]): 5
CCOP(=O)(CCCN=C=S)OCC	3	2.9	Ratio IC50 (LoVo [2]): 10; Ratio IC50 (LoVo [4]): 5
O=P(CCCCCN=C=S)(Oc1ccccc1)Oc1ccccc1	4.6	2.2	Ratio IC50 (LoVo [2]): 10; Ratio IC50 (LoVo [4]): 5
O=P(CCCCCCN=C=S)(OCC(F)(F)F)OCC(F)(F)F	8.8	4.2	–
O=P(CCCN=C=S)(OCC(F)(F)F)OCC(F)(F)F	4.7	3.9	–
CC(C)(C)COP(=O)(CCCCN=C=S)OCC(C)(C)C	10.6	10.2	–
COP(=O)(CCN=C=S)OC	12.4	12.3	–
O=P(CCCCN=C=S)(OCc1ccccc1)OCc1ccccc1	8.4	3.8	–
CC(C)COP(=O)(CCCCCCN=C=S)OCC(C)C	9.2	2.7	Activity (Mus musculus [12]): 153.6 U/L; Activity (Mus musculus [13]): 5.2 mmol/L; Activity (Mus musculus [14]): 0.578 g; Activity (Mus musculus [15]): 10.8 ×10⁶ /uL; Ratio IC50 (LoVo [2]): 10; Activity (Mus musculus [16]): 33.1 U/L; Activity (Mus musculus [17]): 0.199 g; inhibition in vivo at 100 µmol/kg (4T1 [18]): 31%; Ratio IC50 [19]: 3.4; Activity (Mus musculus [20]): 53%; Activity (Mus musculus [21]): 1.25 g; Activity (Mus musculus [22]): 8.2 µmol/L; Activity (Mus musculus [23]): 831 ×10³ /uL; Activity (4T1 [24]): 58; Activity (Mus musculus [25]): 311.2 ×10³ /uL; Activity (Mus musculus [26]): <= 10%; Activity (Mus musculus [27]): 19.2 g/dL; Activity (Mus musculus [28]): 0.127 g; inhibition in vivo at 100 µmol/kg (4T1 [29]): 14.3%; Ratio IC50 (LoVo [4]): 5
O=P(CCCCCN=C=S)(OCC(F)(F)F)OCC(F)(F)F	10.5	5.4	–
COP(=O)(CCCCCCN=C=S)OC	9.9	5.4	–
CCOP(=O)(CCN=C=S)OCC	6.1	4.5	–
CC(C)OP(=O)(CCCN=C=S)OC(C)C	3.3	2.6	Ratio IC50 (LoVo [2]): 10; Ratio IC50 (LoVo [4]): 5
CC[C@H](C)OP(=O)(CCCCN=C=S)O[C@@H](C)CC	4.5	4.2	–
CC(C)(C)COP(=O)(CCCCCN=C=S)OCC(C)(C)C	10.8	8.9	–
